# Experimental data from patent US20160257651A1, “NOVEL COMPOUND WITH ANTIBACTERIAL ACTIVITY” (priority 2013, published 2016).
# “And” between values parts separate entries of the source, which are not always exact repeats. Identical values can stand only once.
# Tests used:
# [1] = target: T1, GyrA (wt) + GyrB (wt) (Staphylococcus aureus, UniProt P20831); assay: DNA cleavage assay using DNA gyrase; format: biochemical; conditions: for Ratio of cleaved DNA (%) / Ratio of substrate plasmid DNA (%): GyrA (wt) + GyrB (wt)
# T1 construct: made in house; host or cells: E. coli BL21(DE3)
# Protocol: (§1) To the culture medium of the resulting transformed Escherichia coli 1 mM isopropyl-8-thiogalactopyranoside (produced by Wako Pure Chemical Industries) was added to induce expression of maltose-binding GyrA(wt), maltose-binding GyrB(wt), or maltose-binding mutant GyrA(S84L), and the bacterium was cultured overnight at 25° C.
# (§2) Then, each disrupted cell suspension was added to a column filled with an amylose resin covalently bound with maltose (produced by Novagen). A buffer (20 mM Tris-HCl (pH 8.0), 200 mM sodium chloride, 1 mM EDTA) containing 10 mM maltose was added to the column to elute the maltose-binding GyrA(wt), maltose-binding GyrB(wt), and maltose-binding mutant GyrA(S84L).
# To each eluate, 4 units/1 mL of the eluate of protease (Factor Xa, produced by Amersham) was added, and the mixture was left standing at 25° C. for 3 hours and 30 minutes to cleave the maltose-binding proteins, GyrA(wt), GyrB(wt), and mutant GyrA(S84L), from the maltose-binding GyrA(wt), maltose-binding GyrB(wt), and maltose-binding mutant GyrA(S84L).
# Then, GyrA(wt), GyrB(wt), and mutant GyrA(S84L) were concentrated by using an ultrafiltration unit (YM-50 Filter Unit, produced by Millipore).
# The concentrated GyrA(wt), GyrB(wt), and mutant GyrA(S84L) were each suspended in a buffer (35 mM Tris-HCl (pH 7.5), 24 mM potassium chloride, 6 mM magnesium chloride, 1.8 mM spermidine, 0.36 mg/mL bovine serum albumin, 5 mM DTT, 50 volume % glycerol) at a concentration of 1 μg/μL for GyrA(wt), 2 μg/μL for GyrB(wt), or 1 μg/μL for mutant GyrA(S84L).
# Levofloxacin was added at a final concentration of […] as control for an index of the enzymatic activity.
# The reaction solution was left standing at 25° C. for 30 minutes to allow the reaction. Subsequently, a 6 mass % solution of sodium laurylsulfate (2 μL) and a 5 mg/mL solution of Proteinase K (2 μL, produced by Wako Pure Chemical Industries) were added to the reaction solution, and the mixture was left standing at 37° C. for 30 minutes to inactivate GyrA(wt) and GyrB(wt) bound to DNA.
# Then, the whole volume of the reaction solution treated with Proteinase K was subjected to electrophoresis on 1 mass % agarose gel to visualize the resultants of the reaction.
# (§3) Then, the total value of the intensities of the bands of “S”, “L”, and “N” was calculated for each concentration, and the result was used as “total DNA amount” (equation 1 mentioned below). Further, the total value of the intensities of the bands of “L” and “N” was also calculated, and the result was used as “amount of cleaved DNA” (equation 2 mentioned below). Then, the ratio (%) of the amount of the substrate plasmid DNA to the total DNA amount was calculated in accordance with the following equation 3, and the ratio (%) of the amount of the cleaved DNA to the total DNA amount was calculated in accordance with the following equation 4.
# The DNA cleavage assay is a method for evaluating an inhibitory action of an agent for DNA gyrase by detecting whether or not DNAs cleaved by DNA gyrase are recombined.
# [2] = target: T2, GyrA (S84L) + GyrB (wt) (Staphylococcus aureus, UniProt P20831, S84L); assay: DNA cleavage assay using DNA gyrase; format: biochemical
# T2 construct: made in house; host or cells: E. coli BL21(DE3)
# Protocol: as §1
# as §2, with “GyrA(S84L). […]” for “GyrA(S84L).”
# as §3
# [3] = system: E. coli strain 1708; assay: Antibacterial activity against Escherichia coli
# Excerpt: (§4) The numerical values in the tables indicate MIC (mg/L), Res means resistant bacterium, and Sus means susceptible bacterium.
# (§5) Antibacterial activities against Escherichia coli of the compounds shown Table 19 were examined by the following method.
# (§6) After completion of the culture, the cells were suspended in fresh TBS to prepare a cell suspension showing an absorbance of 0.3 at 578 nm.
# [4] = system: E. coli strain 1709; assay: Antibacterial activity against Escherichia coli
# Excerpt: as §4, §5, §6
# [5] = system: E. coli strain 1708 plus PABN; assay: Antibacterial activity against Escherichia coli in combination with efflux pump inhibitor PAβN; conditions: E coli plus PABN 40 mg/L, strain 1708, Quinolone Res
# Excerpt: as §4, §5, §6
# [6] = system: E. coli strain 1709 plus PABN; assay: as above; conditions: E coli plus PABN 40 mg/L, strain 1709, Quinolone Sus
# Excerpt: as §4, §5, §6
structure (smiles),measurement,setting,value
"O=c1cc(CO)c2cc(F)c(-c3ccc(O)cc3)cc2n1C1CC1 [J-131CP, 1-cyclopropyl-6-fluoro-4-(hydroxymethyl)-7-(4-hydroxyphenyl)-1,2-dihydroquinolin-2-one]",Ratio of cleaved DNA (%),[1]; concentration 0.125 μg/mL,12%
same,Ratio of substrate plasmid DNA (%),[1]; concentration 0.125 μg/mL,88%
same,Ratio of cleaved DNA (%),[1]; concentration 0.25 μg/mL,19%
same,Ratio of substrate plasmid DNA (%),[1]; concentration 0.25 μg/mL,81%
same,Ratio of cleaved DNA (%),[1]; concentration 0.5 μg/mL,23%
same,Ratio of substrate plasmid DNA (%),[1]; concentration 0.5 μg/mL,77%
same,Ratio of cleaved DNA (%),[1]; concentration 1 μg/mL,47%
same,Ratio of substrate plasmid DNA (%),[1]; concentration 1 μg/mL,53%
same,Ratio of cleaved DNA (%),[1]; concentration 2 μg/mL,77%
same,Ratio of substrate plasmid DNA (%),[1]; concentration 2 μg/mL,23%
same,Ratio of cleaved DNA (%),[1]; concentration 4 μg/mL,81%
same,Ratio of substrate plasmid DNA (%),[1]; concentration 4 μg/mL,19%
same,IC50,"[1]; IC50, GyrA(wt) and GyrB(wt)",6.15 µM and 6.2 µM
same,IC50,"[2]; IC50, GyrA (S84L) + GyrB (wt), calculated from the ratio of cleaved DNA",3.07 µM
same,IC50,"[2]; IC50, GyrA(S84L) and GyrB(wt)",3.1 µM
same,MIC,[3],128 µg/mL
same,MIC,[4],8 µg/mL
same,MIC,[5],0.25 µg/mL
same,MIC,[6],≦0.06 mg/L
"C[C@H]1COc2c(N3CCN(C)CC3)c(F)cc3c(=O)c(C(=O)O)cn1c23 [LVX, levofloxacin]",Ratio of cleaved DNA (%),[1]; concentration 16 μg/mL,78%
same,Ratio of substrate plasmid DNA (%),[1]; concentration 16 μg/mL,22%
